Tests used:
HeLa = assay: Cytotoxicity against human HeLa cells after 48 hrs by MTT assay; type: functional, cell-based
A549 = assay: Cytotoxicity against human A549 cells after 72 hrs by SRB assay; type: functional, cell-based; settings: A549, 72 h
P388 = assay: Cytotoxicity against mouse P388 cells after 48 hrs by MTT assay; type: functional, cell-based; settings: P388, 48 h
HL-60 = assay: Cytotoxicity against human HL60 cells after 48 hrs by MTT assay; type: functional, cell-based; settings: HL-60, 48 h
MCF7 = assay: Cytotoxicity against human MCF7 cells after 48 hrs by MTT assay; type: functional, cell-based; settings: MCF7, 48 h
HCT-8 = assay: Cytotoxicity against human HCT8 cells after 48 hrs by MTT assay; type: functional, cell-based; settings: HCT-8, 48 h
A-375 = assay: Cytotoxicity against human A375 cells after 48 hrs by MTT assay; type: functional, cell-based; settings: A-375, 48 h
Albumin = Albumin (Bos taurus, UniProt P02769); assay: Binding affinity to bovine serum albumin at 10 uM after 15 mins by spectrophotometric titration; type: ADME; settings: cattle, isolated protein, 0.25 h
DNA [1] = assay: Binding affinity to calf thymys DNA assessed as increase in viscosity; type: nucleic-acid assay; settings: Bos taurus
DNA [2] = assay: Binding affinity to calf thymus DNA by fluorescence titration; type: nucleic-acid assay; settings: Bos taurus

Albumin, sequence (P02769 whole entry): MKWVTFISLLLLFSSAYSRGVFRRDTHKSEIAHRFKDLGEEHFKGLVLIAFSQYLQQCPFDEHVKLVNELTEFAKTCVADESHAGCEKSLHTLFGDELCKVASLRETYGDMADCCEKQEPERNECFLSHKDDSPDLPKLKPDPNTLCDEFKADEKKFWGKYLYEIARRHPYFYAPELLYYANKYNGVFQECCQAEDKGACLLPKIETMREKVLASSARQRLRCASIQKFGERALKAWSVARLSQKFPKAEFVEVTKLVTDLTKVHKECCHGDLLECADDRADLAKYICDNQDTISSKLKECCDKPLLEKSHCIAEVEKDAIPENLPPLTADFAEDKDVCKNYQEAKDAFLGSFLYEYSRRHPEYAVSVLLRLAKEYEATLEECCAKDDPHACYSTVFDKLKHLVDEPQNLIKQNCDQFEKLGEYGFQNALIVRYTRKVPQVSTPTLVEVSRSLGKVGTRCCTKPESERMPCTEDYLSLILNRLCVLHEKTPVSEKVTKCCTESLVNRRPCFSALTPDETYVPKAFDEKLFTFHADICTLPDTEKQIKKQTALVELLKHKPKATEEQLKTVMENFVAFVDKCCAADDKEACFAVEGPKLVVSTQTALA

SMILES	IC50 (HeLa)	IC50 (A549)	IC50 (P388)	IC50 (HL-60)	IC50 (MCF7)	IC50 (HCT-8)	IC50 (A-375)	Activity (Albumin)	Activity (DNA [1])	Ka (DNA [2])
COc1cc(-c2ccc(NC(=O)[C@H](CC(C)C)N3C(=O)c4cccc5c(NCCSc6ccccc6)ccc(c45)C3=O)c(OC)c2)ccc1N	> 50 µM	> 50 µM	> 50 µM	> 50 µM	9.45 µM	> 50 µM	> 50 µM	Active	–	–
CC(C)C[C@@H](C(=O)Nc1ccc(S(N)(=O)=O)cc1)N1C(=O)c2cccc3c(NCCN(C)C)ccc(c23)C1=O	8.09 µM	> 50 µM	7.23 µM	17.8 µM	8.65 µM	> 50 µM	6.6 µM	–	Dose-dependent effect	4.92 ×10⁴ /M
CC(C)C[C@@H](C(=O)Nc1ccc(S(=O)(=O)c2ccc(N)cc2)cc1)N1C(=O)c2cccc3c(NCCSc4ccccc4)ccc(c23)C1=O	> 50 µM	> 50 µM	> 50 µM	> 50 µM	24.6 µM	> 50 µM	> 50 µM	Active	–	–
CC(C)C[C@@H](C(=O)Nc1ccc(S(N)(=O)=O)cc1)N1C(=O)c2cccc3c(NCCSc4ccccc4)ccc(c23)C1=O	> 50 µM	> 50 µM	> 50 µM	> 50 µM	12.6 µM	> 50 µM	> 50 µM	Active	–	–
CC(C)C[C@@H](C(=O)Nc1ccc(S(=O)(=O)c2ccc(N)cc2)cc1)N1C(=O)c2cccc3c(NCCN(C)C)ccc(c23)C1=O	> 50 µM	17.2 µM	> 50 µM	> 50 µM	8.64 µM	> 50 µM	> 50 µM	–	–	–
COc1cc(-c2ccc(NC(=O)[C@H](CC(C)C)N3C(=O)c4cccc5c(NCCN(C)C)ccc(c45)C3=O)c(OC)c2)ccc1N	6.74 µM	25.1 µM	7.67 µM	22.8 µM	15 µM	> 50 µM	6.51 µM	–	–	–

Source: ChEMBL document CHEMBL1140885, “Novel naphthalimide-amino acid conjugates with flexible leucine moiety as side chain: design, synthesis and potential antitumor activity” (Bioorg Med Chem, 2009)
